Data taken from patent publication US20260306644A1, “ANTIBODY RECRUITING MOLECULES FOR THE TREATMENT OF CORONAVIRUS DISEASE-19” (priority 2023, published 2026).
“And” between values parts separate entries of the source, which are not always exact repeats. Identical values can stand only once. Like-named read-outs stand apart in the source and are kept apart here. Positions of bridges follow the written chain, without caps; N, C: chain ends. Non-standard residues stand in square brackets, D forms with d. Residues, ends and D or L forms follow the SMILES beside them. No end group written: not given here. *: point of attachment. Biotin = O=C1N[C@H]2[C@H](CS[C@H]2CCCCC(=O)*)N1; PEG4 = NCCOCCOCCOCCOCCC(=O)O; Nle = CCCC[C@H](N)C(=O)O; Aib = CC(C)(N)C(=O)O

What was measured:
SARS-CoV-2 Spike protein = SARS-CoV-2 Spike protein (Severe acute respiratory syndrome coronavirus 2, UniProt P0DTC2); experiment: Ternary binding of SARS-CoV-2 Spike protein (293T cells expressing Spike-GFP, IgG-AF647, flow cytometry); assay type: cell-based; conditions: IgG-AF647 10 μg/ml, repeat values/batches listed separately, read-out: SARS-CoV-2 Ternary binding EC50
[1] = biological target: T1, SARS-CoV-2 Spike A (wild-type) (Severe acute respiratory syndrome coronavirus 2, UniProt P0DTC2); experiment: MSD ACE2 competition assay (inhibition of Spike binding with ACE2, ECL), A (wild-type); conditions: IC50 Wild Type, Wild Type Spike
T1 construct: purchased Meso Scale Diagnostics, LLC V-PLEX SARS-CoV-2 Panel 13 (ACE2) Kit / Panel 23 (ACE2) Kit

[2] = system: Spike RBD coated magnetic beads / RAW 264.7 macrophages; experiment: Antibody-dependent cellular phagocytosis (ADCP), RAW 264.7 macrophages and Spike RBD coated magnetic beads, flow cytometry; assay type: cell-based; conditions: 37° C., 2 hours, read-out: SARS-COV-2 ADCP EC50
Procedure: The ability of the compounds to mediate antibody-dependent cellular phagocytosis (ADCP) was assessed using RAW 264.7 macrophages and Spike RBD coated magnetic beads (https://www.acrobiosystems.com/P3194-SARS-CoV-2-Spike-RBD-coupled-Magnetic-Beads.html). Spike RBD coated magnetic beads (3 ul per well) were added to each well of a round bottom 96-well plates. RAW264.7 cells (50,000 cells per well) were added to the beads. Next, the compounds were administered to predetermined final concentrations. The cell-bead mixtures were incubated at 37° C. for 2 hours. The mixtures were then analyzed by flow cytometry.

[3] = biological target: T2, SARS-CoV-2 Spike Glycoprotein RBD protein (Severe acute respiratory syndrome coronavirus 2, UniProt P0DTC2); experiment: Binding of biotinylated ligands to SARS-CoV-2 Spike Glycoprotein RBD protein by ELISA; conditions: ELISA; biotinylated ligands; Spike RBD; read-out: ELISA SARS-CoV-2 Spike RBD Protein Binding EC50
T2 construct: SARS-CoV-2 (COVID-19) S Protein RBD, His Tag; purchased Acro Biosystems SPD-C52H3
Procedure: Materials. The binding affinity of biotinylated ligands to SARS-CoV-2 Spike Glycoprotein RBD protein was determined by ELISA. The binding assay was performed using the following steps: (1) assay plates (PE B&W Isoplate 96-well Flat Bottom, High Bindi-g - Perkin Elmer 6005580) were coated with 100 ul Anti-6× His tag antibody (Anti-6× His tag Antibody; Abcam ab15149, Mouse Monoclonal; Cambridge, UK) at 5 μg/ml in PBS, incubate 1 hour at 37° C. without shaking. The plates were washed (each wash step of this assay includes four 1-minute washes with 200 ul phosphate-buffered saline-0.05% (w/v) Tween® 20 detergent (PBST)). (2) Plates were blocked with 200 ul PBST-5% BSA (PBSTB; American Bio AB01088-00100; Canton, MA), for an hour at room temperature on a plate shaker (400 rpm). The plates were washed. […] The plates were washed. (4) Ligands were added, 100 ul at a concentration range of 0.1 mM to 100 nM in PBSTB, and incubated for 1 hour at room temperature on a plate shaker (200 RPM). The plates were washed. (5) NeutrAvidin™-HRP (Invitrogen 31030; Waltham, MA) is added, 100 ul at a dilution of 1:20,000 in PBSTB, and incubated for 1 hour at room temperature on a plate shaker (200 RPM). The plates were washed. (6) SuperSignal ELISA Pico Chemiluminescent Substrate (Thermo Scientific 37069; Waltham, MA) was added and incubated for 5 minutes at room temperature on a plate shaker (200 RPM).

[4] = 293T cells expressing Spike-GFP

Molecule	EC50 (SARS-CoV-2 Spike protein; [4])	IC50 [1]	EC50 [2]	EC50 [3]	EC50 (SARS-CoV-2 Spike protein; […])
DKEWILQKIYEIMRLLDELGHAEASMRVSDLIYEFMKKGDERLLEEAERLLEEVERGGGGGGDCAWHLGELVWCT-NH2 (disulfide 64-74) [Compound 170]	0.02 nM	1.52 nM	0.95 nM	–	–
CC[C@H](C)[C@H](NC(=O)[C@H](CC(C)C)NC(=O)[C@H](CC(=O)O)NC(=O)[C@H](CO)NC(=O)[C@@H](NC(=O)[C@H](CCCNC(=N)N)NC(=O)[C@H](CCSC)NC(=O)[C@H](CO)NC(=O)[C@H](C)NC(=O)[C@H](CCC(=O)O)NC(=O)[C@H](C)NC(=O)[C@H](Cc1c[nH]cn1)NC(=O)CNC(=O)[C@H](CC(C)C)NC(=O)[C@H](CCC(=O)O)NC(=O)[C@H](CC(=O)O)NC(=O)[C@H](CC(C)C)NC(=O)[C@H](CC(C)C)NC(=O)[C@H](CCCNC(=N)N)NC(=O)[C@H](CCSC)NC(=O)[C@@H](NC(=O)[C@H](CCC(=O)O)NC(=O)[C@H](Cc1ccc(O)cc1)NC(=O)[C@@H](NC(=O)[C@H](CCCCN)NC(=O)[C@H](CCC(N)=O)NC(=O)[C@H](CC(C)C)NC(=O)[C@@H](NC(=O)[C@H](Cc1c[nH]c2ccccc12)NC(=O)[C@H](CCC(=O)O)NC(=O)[C@H](CCCCN)NC(=O)[C@H](CC(=O)O)NC(=O)[C@H](CO)NC(=O)C(C)(C)NC(=O)CCOCCOCCOCCOCCNC(=O)CCCC[C@@H]1SC[C@@H]2NC(=O)N[C@@H]21)[C@@H](C)CC)[C@@H](C)CC)[C@@H](C)CC)C(C)C)C(=O)N[C@@H](Cc1ccc(O)cc1)C(=O)N[C@@H](CCC(=O)O)C(=O)N[C@@H](Cc1ccccc1)C(=O)N[C@@H](CCSC)C(=O)N[C@@H](CCCCN)C(=O)N[C@@H](CCCCN)C(=O)N[C@H](Cc1ccccc1)C(=O)O [Compound 216]	0.46 nM	–	–	1.11 nM	–
CC[C@H](C)[C@H](NC(=O)[C@H](CC(C)C)NC(=O)[C@H](CC(=O)O)NC(=O)[C@H](CO)NC(=O)[C@@H](NC(=O)[C@H](CCCNC(=N)N)NC(=O)[C@H](CCSC)NC(=O)[C@H](CO)NC(=O)[C@H](C)NC(=O)[C@H](CCC(=O)O)NC(=O)[C@H](C)NC(=O)[C@H](Cc1c[nH]cn1)NC(=O)CNC(=O)[C@H](CC(C)C)NC(=O)[C@H](CCC(=O)O)NC(=O)[C@H](CC(=O)O)NC(=O)[C@H](CC(C)C)NC(=O)[C@H](CC(C)C)NC(=O)[C@H](CCCNC(=N)N)NC(=O)[C@H](CCSC)NC(=O)[C@@H](NC(=O)[C@H](CCC(=O)O)NC(=O)[C@H](Cc1ccc(O)cc1)NC(=O)[C@@H](NC(=O)[C@H](CCCCN)NC(=O)[C@H](CCC(N)=O)NC(=O)[C@H](CC(C)C)NC(=O)[C@@H](NC(=O)[C@H](Cc1c[nH]c2ccccc12)NC(=O)[C@H](CCC(=O)O)NC(=O)[C@H](CCCCN)NC(=O)[C@H](CC(=O)O)NC(=O)[C@H](CO)NC(=O)C(C)(C)NC(=O)CCOCCOCCOCCOCCNC(=O)CCCC[C@@H]1SC[C@@H]2NC(=O)N[C@@H]21)[C@@H](C)CC)[C@@H](C)CC)[C@@H](C)CC)C(C)C)C(=O)N[C@@H](Cc1ccc(O)cc1)C(=O)N[C@@H](CCC(=O)O)C(=O)N[C@@H](Cc1ccccc1)C(=O)N[C@@H](CCSC)C(=O)N[C@@H](CCCCN)C(=O)N[C@@H](CCCCN)C(=O)N[C@H](C)C(=O)O [Compound 214]	–	–	–	0.78 nM	–
DKEWILQKIYEIMRLLDELGHAEASMRVSDLIYEFMKKGDERLLEEAERLLEEVERGQAPGQAPDCAWHLGELVWCT-NH2 (disulfide 66-76) [Compound 174]	–	1.4 nM	0.044 nM	–	0.14 nM
Ac-DKEWILQKIYEIMRLLDELGHAEASMRVSDLIYEFMKKGDERLLEEAERLLEEVERGQAPGQAPDCAWHLGELVWCT-NH2 (disulfide 66-76) [Compound 147]	–	1.35 nM	0.43 nM	–	0.02 nM
{Biotin-PEG4}-[Aib]SDKEWILQKIYEI[Nle]RLLDELGHAEAS[Nle]RVSDLIY[Aib]FMK[Aib]G [Compound 220]	–	–	–	2.55 nM	–
Ac-DKEWILQKIYEIMRLLDELGHAEASMRVSDLIYEFMKKGDERLLEEAERLLEEVERGGGGGGDCAWHLGELVWCT-NH2 (disulfide 64-74) [Compound 143]	0.05 nM	1.35 nM	0.75 nM	–	–
Ac-DKEWILQKIYEIMRLLDELGHAEASMRVSDLIYEFMKKGDERLLEEAERLLEEVERGGDCAWHLGELVWCT-NH2 (disulfide 60-70) [Compound 145]	0.04 nM	0.97 nM	0.52 nM	–	–
Ac-DKEWILQKIYEIMRLLDELGHAEASMRVSDLIYEFMKKGDERLLEEAERLLEEVERPASPASPASPASDCAWHLGELVWCT (disulfide 70-80) [Compound 165]	–	0.83 nM	0.07 nM	–	0.11 nM
Ac-DKEWILQKIYEIMRLLDELGHAEASMRVSDLIYEFMKKGDERLLEEAERLLEEVERGGGGGGGGDCAWHLGELVWCT-NH2 (disulfide 66-76) [Compound 142]	0.05 nM	1.35 nM	0.6 nM	–	–
DKEWILQKIYEIMRLLDELGHAEASMRVSDLIYEFMKKGDERLLEEAERLLEEVERGGDCAWHLGELVWCT-NH2 (disulfide 60-70) [Compound 172]	0.02 nM	1.05 nM	0.87 nM	–	–
CC[C@H](C)[C@H](NC(=O)[C@H](CC(C)C)NC(=O)[C@H](CC(=O)O)NC(=O)[C@H](CO)NC(=O)[C@@H]1CSSC[C@H](NC(=O)[C@@H](NC(=O)[C@H](CCC(=O)O)NC(=O)[C@H](Cc2ccc(O)cc2)NC(=O)[C@@H](NC(=O)[C@H](CCCCN)NC(=O)[C@H](CCC(N)=O)NC(=O)[C@H](CC(C)C)NC(=O)[C@@H](NC(=O)[C@H](Cc2c[nH]c3ccccc23)NC(=O)[C@H](CCC(=O)O)NC(=O)[C@H](CCCCN)NC(=O)[C@H](CC(=O)O)NC(=O)CCOCCOCCOCCOCCNC(=O)CCCC[C@@H]2SC[C@@H]3NC(=O)N[C@@H]32)[C@@H](C)CC)[C@@H](C)CC)[C@@H](C)CC)C(=O)N[C@@H](CCCNC(=N)N)C(=O)N[C@@H](CC(C)C)C(=O)N[C@@H](CC(C)C)C(=O)N[C@@H](CC(=O)O)C(=O)N[C@@H](CCC(=O)O)C(=O)N[C@@H](CC(C)C)C(=O)NCC(=O)N[C@@H](Cc2c[nH]cn2)C(=O)N[C@@H](C)C(=O)N[C@@H](CCC(=O)O)C(=O)N[C@@H](C)C(=O)N[C@@H](CO)C(=O)N[C@@H](CCSC)C(=O)N[C@@H](CCCNC(=N)N)C(=O)N1)C(=O)N[C@@H](Cc1ccc(O)cc1)C(=O)N[C@@H](CCC(=O)O)C(=O)N[C@@H](Cc1ccccc1)C(=O)N[C@@H](CCSC)C(=O)N[C@@H](CCCCN)C(=O)N[C@@H](CCCCN)C(=O)NCC(=O)O [Compound 181] ({Biotin-PEG4}-DKEWILQKIYEICRLLDELGHAEASMRCSDLIYEFMKKG-OH; disulfide 13-28)	0.77 nM and < 0.3 nM	2.51 nM	2.1 nM and 3.1 nM	–	–
DKEWILQKIYEIMRLLDELGHAEASMRVSDLIYEFMKKGDERLLEEAERLLEEVEREAAAKEAAAKDCAWHLGELVWCT-NH2 (disulfide 68-78) [Compound 173]	–	1.21 nM	0.35 nM	–	0.04 nM
